ChEMBL document CHEMBL6074678, “Selectively Antagonizing the NOD1-Mediated Inflammatory Signaling Pathway Mitigates the Gastric Inflammation Induced by Helicobacter pylori Infection” (J Med Chem, 2024)
Activity calls are given as the source filed them. The rule behind the calls is not given here.

Assays:
[1] = biological target: T1, Nucleotide-binding oligomerization domain-containing protein 2 (Mus musculus) (UniProt Q8K3Z0); test: Inhibition of mouse NOD2 at 1 uM relative to control
T1 sequence (whole entry): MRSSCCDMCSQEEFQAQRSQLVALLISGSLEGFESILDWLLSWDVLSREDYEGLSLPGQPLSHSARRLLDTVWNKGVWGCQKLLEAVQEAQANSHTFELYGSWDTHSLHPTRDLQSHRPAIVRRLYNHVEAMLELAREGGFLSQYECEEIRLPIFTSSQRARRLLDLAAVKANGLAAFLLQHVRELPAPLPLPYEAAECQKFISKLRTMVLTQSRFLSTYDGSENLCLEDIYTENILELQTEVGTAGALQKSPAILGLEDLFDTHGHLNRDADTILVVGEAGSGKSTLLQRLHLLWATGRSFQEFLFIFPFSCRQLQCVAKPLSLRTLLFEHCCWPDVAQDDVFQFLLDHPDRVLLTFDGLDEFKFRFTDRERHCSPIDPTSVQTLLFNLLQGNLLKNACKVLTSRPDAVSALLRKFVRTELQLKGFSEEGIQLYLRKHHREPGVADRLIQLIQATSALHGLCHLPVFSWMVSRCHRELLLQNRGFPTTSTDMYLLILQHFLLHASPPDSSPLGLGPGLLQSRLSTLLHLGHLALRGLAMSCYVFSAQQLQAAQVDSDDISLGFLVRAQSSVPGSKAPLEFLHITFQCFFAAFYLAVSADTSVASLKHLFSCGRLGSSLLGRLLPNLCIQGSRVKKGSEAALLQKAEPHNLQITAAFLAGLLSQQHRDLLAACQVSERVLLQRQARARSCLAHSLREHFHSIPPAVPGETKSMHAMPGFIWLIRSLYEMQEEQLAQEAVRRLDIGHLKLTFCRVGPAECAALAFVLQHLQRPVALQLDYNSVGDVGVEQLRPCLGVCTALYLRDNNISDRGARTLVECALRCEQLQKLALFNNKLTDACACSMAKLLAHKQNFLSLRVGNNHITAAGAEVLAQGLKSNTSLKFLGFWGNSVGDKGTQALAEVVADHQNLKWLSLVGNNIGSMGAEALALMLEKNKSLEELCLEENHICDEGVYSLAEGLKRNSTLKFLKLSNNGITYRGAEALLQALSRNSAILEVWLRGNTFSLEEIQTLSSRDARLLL

[2] = biological target: T2, Toll-like receptor 9 (Homo sapiens) (UniProt Q9NR96); test: Inhibition of human TLR9 at 1 uM relative to control
T2 sequence (whole entry): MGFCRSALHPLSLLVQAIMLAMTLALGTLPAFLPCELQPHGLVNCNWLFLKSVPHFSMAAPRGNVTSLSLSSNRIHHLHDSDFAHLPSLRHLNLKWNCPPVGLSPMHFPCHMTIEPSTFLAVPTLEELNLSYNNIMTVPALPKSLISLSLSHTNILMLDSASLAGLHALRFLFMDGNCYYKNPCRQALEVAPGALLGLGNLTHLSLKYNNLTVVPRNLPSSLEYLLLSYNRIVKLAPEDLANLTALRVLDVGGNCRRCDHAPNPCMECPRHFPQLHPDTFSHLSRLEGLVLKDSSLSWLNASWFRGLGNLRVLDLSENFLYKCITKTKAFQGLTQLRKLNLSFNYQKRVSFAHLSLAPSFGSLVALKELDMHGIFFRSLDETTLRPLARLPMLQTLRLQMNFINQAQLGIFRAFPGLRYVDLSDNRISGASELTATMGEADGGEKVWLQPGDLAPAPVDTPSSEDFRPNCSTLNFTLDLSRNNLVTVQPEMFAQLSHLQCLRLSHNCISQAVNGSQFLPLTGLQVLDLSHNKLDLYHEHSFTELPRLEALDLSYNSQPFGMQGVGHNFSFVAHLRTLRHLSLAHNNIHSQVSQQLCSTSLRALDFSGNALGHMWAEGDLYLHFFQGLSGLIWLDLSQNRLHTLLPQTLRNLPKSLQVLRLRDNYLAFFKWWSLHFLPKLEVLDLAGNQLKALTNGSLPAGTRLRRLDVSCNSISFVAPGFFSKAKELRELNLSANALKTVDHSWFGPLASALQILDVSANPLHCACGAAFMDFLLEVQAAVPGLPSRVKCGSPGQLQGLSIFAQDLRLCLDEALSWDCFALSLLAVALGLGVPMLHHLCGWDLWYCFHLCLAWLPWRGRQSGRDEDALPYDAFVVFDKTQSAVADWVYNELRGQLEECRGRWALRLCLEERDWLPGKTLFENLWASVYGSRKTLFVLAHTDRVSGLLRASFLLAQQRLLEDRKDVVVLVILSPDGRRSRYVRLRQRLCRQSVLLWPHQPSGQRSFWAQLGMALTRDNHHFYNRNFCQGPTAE

[3] = Anti-inflammatory activity in mouse BMDM cells assessed as decrease in IL-6 mRNA level at 0.1 uM pretreated for 1 hr followed by C12-iE-DAP stimulation for 2 hrs by RT-qPCR analysis relative to control; format: functional; design: scale not given: the % may be the effect or the level left; settings: time 3 hrs
THP-1 = test: Anti-inflammatory activity in human THP-1 cells assessed as decrease in TNF-alpha mRNA level at 0.1 uM pretreated for 1 hr followed by C12-iE-DAP stimulation for 2 hrs by RT-qPCR analysis relative to control; format: functional; design: scale not given: the % may be the effect or the level left; settings: time 3 hrs
AGS = test: Anti-inflammatory activity in human AGS cells assessed as decrease in CXCL8 mRNA level at 1 to 5 uM pretreated for 1 hr followed by infection with Helicobacter pylori for 2 hrs by RT-qPCR analysis; format: functional, cell-based; settings: dose 1-5 µM, time 3.0 hrs
[4] = Volume of distribution at steady state in C57BL/6 mouse at 2 mg/kg, iv by LC-MS/MS analysis; format: ADME, organism-based; settings: in vivo, read-out: Vdss
[5] = MRT (infinity) in C57BL/6 mouse at 20 mg/kg, po by LC-MS/MS analysis; format: ADME, organism-based; settings: in vivo
Mus musculus = test: Anti-inflammatory activity in C57BL/6 mouse model of Helicobacter pylori-induced gastric inflammation assessed as inhibition in gastric keratinocyte chemoattractant level pretreated orally with compound upto 24 hrs followed by infection of Helicobacter pylori measured upto 72 hrs; format: functional, organism-based; settings: dose 12.5-50 mg/kg, route po, time <= 96.0 hrs

SMILES: N#Cc1ccc2nc(Cl)n(-c3ccc(Cl)c(NS(=O)(=O)c4c(F)cccc4F)c3)c(=O)c2c1
- inhibition [1]: 20.2%
- inhibition [2]: 37.6%

SMILES: CS(=O)(=O)c1ccc2nc(Cl)n(-c3ccc(Cl)c(NS(=O)(=O)c4c(F)cccc4F)c3)c(=O)c2c1
- inhibition [1]: 21.9%
- inhibition [2]: 37.1%
- Activity [3]: ~100%
- Activity (THP-1): ~100%
- Activity (AGS): Active
- Vd [4]: 1.33 L/kg
- MRT inf [5]: 3.22 h
- inhibition (Mus musculus): Dose-dependent-effect; Exhibited Superior Efficacy Compared To Compound C

SMILES: CS(=O)(=O)c1ccc2nc(Cl)n(-c3ccc(Cl)c(NS(=O)(=O)c4ccc5ncsc5c4)c3)c(=O)c2c1
- inhibition [1]: < 10%
- inhibition [2]: 73.9%
